Results on one molecule are retold here after ChEMBL document CHEMBL4673207, “Recent advances in the discovery of potent and selective HDAC6 inhibitors” (Eur J Med Chem, 2018).

pIC50: −log10 of the molar value.

Test [1] addresses Histone deacetylase 1 (Homo sapiens, UniProt Q13547). The experiment in a line: Inhibition of Flag-tagged HDAC1 (unknown origin) expressed in 293T cells using ZMAL as substrate incubated for 180 mins by fluorescence method. Also on record: species or system HEK293T.
Test [2] deals with MCF7. The experiment in a line: Antiproliferative activity against human MCF7 incubated for 72 hrs by MTT assay. It counts as functional. For orientation: Tetrazolium assays rely on reduction of a dye to a coloured formazan, in cell work by metabolically active cells.
For test [3], the target named is T1, Protein deacetylase HDAC6 (Homo sapiens, UniProt Q9UBN7).
T1 sequence (Q9UBN7 whole entry): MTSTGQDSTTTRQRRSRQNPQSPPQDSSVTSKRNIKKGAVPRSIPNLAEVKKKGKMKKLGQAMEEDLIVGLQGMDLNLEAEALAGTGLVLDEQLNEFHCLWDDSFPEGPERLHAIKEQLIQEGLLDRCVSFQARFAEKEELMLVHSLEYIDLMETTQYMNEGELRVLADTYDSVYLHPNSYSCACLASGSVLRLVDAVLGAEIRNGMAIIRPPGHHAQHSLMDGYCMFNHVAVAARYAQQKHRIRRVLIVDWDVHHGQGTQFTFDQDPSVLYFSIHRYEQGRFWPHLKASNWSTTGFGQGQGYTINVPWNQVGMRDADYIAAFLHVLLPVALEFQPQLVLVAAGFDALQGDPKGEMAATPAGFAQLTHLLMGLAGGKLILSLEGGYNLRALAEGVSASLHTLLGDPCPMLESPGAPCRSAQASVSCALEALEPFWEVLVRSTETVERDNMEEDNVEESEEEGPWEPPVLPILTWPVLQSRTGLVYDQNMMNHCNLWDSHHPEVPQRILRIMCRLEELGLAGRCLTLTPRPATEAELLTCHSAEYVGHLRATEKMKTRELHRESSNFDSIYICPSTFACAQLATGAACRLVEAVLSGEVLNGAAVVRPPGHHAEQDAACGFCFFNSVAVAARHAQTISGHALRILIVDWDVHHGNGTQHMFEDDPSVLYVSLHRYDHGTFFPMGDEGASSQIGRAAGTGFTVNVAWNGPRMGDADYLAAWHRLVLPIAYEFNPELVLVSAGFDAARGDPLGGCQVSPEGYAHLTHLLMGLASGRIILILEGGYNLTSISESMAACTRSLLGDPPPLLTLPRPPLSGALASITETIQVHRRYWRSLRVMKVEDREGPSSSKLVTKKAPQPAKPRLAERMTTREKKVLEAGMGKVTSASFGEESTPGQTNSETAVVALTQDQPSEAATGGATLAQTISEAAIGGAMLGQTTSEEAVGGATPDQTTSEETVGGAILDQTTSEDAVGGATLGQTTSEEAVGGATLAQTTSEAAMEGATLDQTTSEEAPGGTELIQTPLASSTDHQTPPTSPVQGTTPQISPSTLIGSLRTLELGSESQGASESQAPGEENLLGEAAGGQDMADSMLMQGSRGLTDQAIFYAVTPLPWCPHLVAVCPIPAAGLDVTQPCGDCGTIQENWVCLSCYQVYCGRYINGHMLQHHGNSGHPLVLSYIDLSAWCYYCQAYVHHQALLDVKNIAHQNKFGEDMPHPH
The experiment in a line: Inhibition of Flag-tagged HDAC6 (unknown origin) expressed in 293T cells using ZMAL as substrate incubated for 180 mins by fluorescence method. Set-up: species or system HEK293T.

Test [4] deals with HEK293T. The experiment in a line: Selectivity ratio of IC50 for Flag-tagged HDAC1 (unknown origin) expressed in 293T cells to IC50 for Flag-tagged HDAC6 (unknown origin) expressed in 293T cells. It counts as cell-based. The note with it: Homo sapiens.

Sequence of Histone deacetylase 1 (Q13547 whole entry): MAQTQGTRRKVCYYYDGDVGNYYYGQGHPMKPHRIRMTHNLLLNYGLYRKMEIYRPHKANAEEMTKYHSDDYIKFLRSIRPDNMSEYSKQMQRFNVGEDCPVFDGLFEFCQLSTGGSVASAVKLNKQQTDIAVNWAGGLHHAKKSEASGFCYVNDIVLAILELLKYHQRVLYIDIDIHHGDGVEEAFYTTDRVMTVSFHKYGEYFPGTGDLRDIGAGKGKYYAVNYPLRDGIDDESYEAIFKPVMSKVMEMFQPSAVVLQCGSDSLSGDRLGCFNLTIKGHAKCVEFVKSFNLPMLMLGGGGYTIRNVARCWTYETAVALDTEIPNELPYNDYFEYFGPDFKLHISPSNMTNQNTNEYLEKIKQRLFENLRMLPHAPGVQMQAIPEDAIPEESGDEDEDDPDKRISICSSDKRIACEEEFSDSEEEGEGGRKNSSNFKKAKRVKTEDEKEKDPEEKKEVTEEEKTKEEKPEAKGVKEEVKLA

By pIC50 is commonly meant the negative decadic logarithm of the IC50, by convention in mol/L. The low end stands for a high IC50, the high end for a low IC50. One may read the GI50 as the concentration at which growth is held to half of that of the control. Higher therefore signals lower sensitivity of the cells. Consider `COC(=O)[C@H](Cc1ccccn1)NC(=O)CCCCCCC(=O)NO`, for which the pIC50 was 4.00 in test [1] and 5.40 in test [3]. In test [2], this molecule yielded a concentration for 50% growth inhibition (GI50) of 104 µM. Moreover, the Ratio IC50 in test [4] was found to be 25.
